Assay results from patent US20250339443A1, “METHOD FOR TREATING OR PREVENTING CALCIUM RELEASE-ACTIVATED CALCIUM CHANNEL OR DISCOIDIN DOMAIN RECEPTOR 2 RELATED DISORDERS OR CONDITIONS” (LumiSTAR Biotechnology, Inc., priority 2023, published 2025).

Biological target: T1, DDR2 (Homo sapiens, UniProt Q16832)
T1 construct: expressed in transfected cells; host or cells: HEK293T
T1 sequence (Q16832 22-855): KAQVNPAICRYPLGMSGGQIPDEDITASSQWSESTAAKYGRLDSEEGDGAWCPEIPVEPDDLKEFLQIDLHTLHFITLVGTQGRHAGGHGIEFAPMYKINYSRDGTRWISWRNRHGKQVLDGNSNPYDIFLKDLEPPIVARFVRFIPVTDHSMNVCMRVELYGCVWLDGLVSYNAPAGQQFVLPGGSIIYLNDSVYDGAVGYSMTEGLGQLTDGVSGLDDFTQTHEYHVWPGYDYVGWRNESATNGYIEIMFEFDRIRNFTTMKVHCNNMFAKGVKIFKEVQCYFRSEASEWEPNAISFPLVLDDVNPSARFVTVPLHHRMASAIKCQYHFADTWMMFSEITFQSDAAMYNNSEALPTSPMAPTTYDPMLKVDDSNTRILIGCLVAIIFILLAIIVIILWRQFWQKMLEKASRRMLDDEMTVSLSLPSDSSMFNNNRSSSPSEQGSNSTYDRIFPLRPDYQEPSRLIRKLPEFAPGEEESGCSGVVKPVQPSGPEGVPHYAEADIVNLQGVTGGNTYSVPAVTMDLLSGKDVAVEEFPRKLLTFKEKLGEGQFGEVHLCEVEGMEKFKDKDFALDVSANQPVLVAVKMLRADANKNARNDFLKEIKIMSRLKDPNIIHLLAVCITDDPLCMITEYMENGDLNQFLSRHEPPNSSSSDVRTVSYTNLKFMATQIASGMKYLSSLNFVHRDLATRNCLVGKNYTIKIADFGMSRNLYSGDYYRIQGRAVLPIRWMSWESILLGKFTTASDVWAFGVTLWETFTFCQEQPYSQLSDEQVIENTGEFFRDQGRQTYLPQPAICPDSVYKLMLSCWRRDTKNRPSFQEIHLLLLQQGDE
Assay: DDR2 activation (anti-phosphotyrosine Western blot) in HEK293T cells overexpressing DDR2, collagen-stimulated
Format: cell-based
Conditions: 10 μM pretreatment 30 minutes, then 50 μg/mL type I collagen 12 hours
Procedure: FIG. 1A, FIG. 1B, FIG. 1C, FIG. 1D, FIG. 1E, FIG. 1F, FIG. 1G, FIG. 1H, FIG. 1I, FIG. 1J, FIG. 1K, FIG. 1L, FIG. 1M, and FIG. 1N show WRG-28 and atovaquone (Av) suppress the activation of DDR2 and calcium release-activated calcium (CRAC) channel. FIG. 1A indicates HEK293T cells were transiently overexpressed with DDR2 and then pretreated with different compounds (10 μM), including WRG-28, Av, donepezil hydrochloride (Dh), terazosin hydrochloride (Th), verapamil and flecainide for 30 minutes. Verapamil and flecainide were used as negative control here. After that, cells were treated with 50 μg/mL type I collagen for 12 hours. Cell lysates were harvested and subjected to Western blot analysis with antibodies against phosphotyrosine antibody (clone 4G10), DDR2, and β-actin. […] CRAC channel activity was evaluated by applying 1 μM thapsigargin (Thap.) in a calcium-free solution to deplete the endoplasmic reticulum calcium store, followed by the reintroduction of 2 mM Ca^2+ in an external solution. […] Further analyses are presented in FIG. 1I and FIG. 1J, where the second peak of each wave and rate of entry were analyzed. […] The Orai1 and Stim1 puncta in HEK293T cells overexpressed with CFP-Orai1/Stim1-mCherry were assessed. […]
Cell lysates were harvested in RIPA buffer (150 mM NaCl, 1 mM EGTA, 50 mM Tris pH 7.4, 10% glycerol, 1% Triton X-100, 1% sodium deoxycholate, 0.1% SDS, and protease inhibitor cocktail) and collected from culture dish with cell scrapers. […] The protein expression levels were assessed by specific primary antibodies, including antibodies against phosphotyrosine (clone 4G10; Millipore), DDR2 (R&D), α-SMA (Sigma), Collagen 1a1 (Boster), E-cadherin (BD Biosciences), SGLT2 (Proteintech), NHE1 (Novus) and β-actin (Clone C4, Millipore), followed by incubating with secondary antibodies conjugated with HRP and detected by ECL kit (Thermo Scientific).
To examine the impact of these compounds on DDR2 activation, HEK293T cells overexpressing DDR2 were pretreated with various compounds. […] The activation of DDR2 was evaluated using an anti-phosphotyrosine antibody. […]

activation of DDR2 (phosphotyrosine): suppress
SMILES: CCNS(=O)(=O)c1ccc(COc2ccc3nc4ccc(=O)cc-4oc3c2)cc1 [WRG-28]
